These results are taken from ChEMBL document CHEMBL4819083, “Synthesis of pyranochalcone derivatives and their inhibitory effect on NF-κB activation” (Bioorg Med Chem Lett, 2021).

Data set [1] deals with T1, Inhibitor of nuclear factor kappa-B kinase subunit alpha (Mus musculus) (UniProt Q60680).
T1 sequence (whole entry): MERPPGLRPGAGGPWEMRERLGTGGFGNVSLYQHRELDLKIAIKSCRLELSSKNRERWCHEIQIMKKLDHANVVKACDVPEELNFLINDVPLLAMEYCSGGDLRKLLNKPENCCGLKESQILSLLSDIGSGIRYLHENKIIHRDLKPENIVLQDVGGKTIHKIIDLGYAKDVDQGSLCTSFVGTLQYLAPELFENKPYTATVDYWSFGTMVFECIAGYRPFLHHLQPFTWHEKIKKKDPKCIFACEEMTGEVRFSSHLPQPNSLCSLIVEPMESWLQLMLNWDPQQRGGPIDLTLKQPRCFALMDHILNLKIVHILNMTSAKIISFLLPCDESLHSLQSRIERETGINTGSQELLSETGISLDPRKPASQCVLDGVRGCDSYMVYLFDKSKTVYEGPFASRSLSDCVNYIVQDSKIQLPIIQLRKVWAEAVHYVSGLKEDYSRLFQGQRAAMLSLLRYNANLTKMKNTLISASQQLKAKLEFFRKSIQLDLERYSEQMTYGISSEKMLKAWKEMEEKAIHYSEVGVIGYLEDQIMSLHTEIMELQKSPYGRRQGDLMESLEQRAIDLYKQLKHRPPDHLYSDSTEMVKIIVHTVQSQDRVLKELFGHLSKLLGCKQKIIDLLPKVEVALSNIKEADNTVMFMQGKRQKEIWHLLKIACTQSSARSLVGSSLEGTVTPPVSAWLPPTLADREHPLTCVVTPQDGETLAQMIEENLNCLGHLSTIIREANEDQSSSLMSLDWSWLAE
Put plainly: Inhibition of IKKalpha in mouse RAW264.7 cells assessed as inhibition of LPS-induced IKK-alpha phosphorylation level pre-treated for 2 hrs followed by LPS stimulation and measured after 6 hrs by Western blot analysis. Type of data set: cell-based.

Data set [2] concerns RAW264.7. As to the kind of experiment: Inhibition of LPS-induced NO expression in mouse RAW264.7 cells at 2 to 20 uM preincubated for 2 hr followed by LPS stimulation and measured after 24 hrs. It is filed as functional, cell-based. To be noted: dose 2-20 µM.
Data set [3] concerns BMDM. Put plainly: Inhibition of LPS-induced IL-1beta mRNA expression in mouse BMDM cells at 5 to 10 uM preincubated for 2 hr followed by LPS stimulation and measured after 6 hrs by qRT-PCR. It is filed as functional, cell-based. To be noted: dose 5-10 µM. (In qPCR the cycle at which signal appears reflects the starting amount.)
For data set [4], the system named is RAW264.7. As to the kind of experiment: Inhibition of LPS-induced pro IL-1beta expression in mouse RAW264.7 cells at 2 to 20 uM preincubated for 2 hr followed by LPS stimulation and measured after 6 hrs by Western blot analysis. Type of data set: functional, cell-based. The note with it: dose 2-20 µM.
The test system of data set [5] is RAW264.7. As to the kind of experiment: Inhibition of MAPK signalling activation in mouse RAW264.7 cells assessed as reduction in LPS-induced p38 phosphorylation pre-treated for 2 hrs followed by LPS stimulation and measured after 6 hrs by Western blot analysis. It is filed as cell-based. (In western blotting, separated proteins are transferred to a membrane and probed.)

For data set [6], the system named is RAW264.7. Put plainly: Inhibition of LPS-induced iNOS expression in mouse RAW264.7 cells at 2 to 20 uM preincubated for 2 hr followed by LPS stimulation and measured after 6 hrs by Western blot analysis. To be noted: dose 2-20 µM. It is filed as functional, cell-based.
Data set [7] concerns RAW264.7. Put plainly: Inhibition of NF-kappaB in mouse RAW264.7 cells assessed as reduction in LPS-induced p65 phosphorylation pre-treated for 2 hrs followed by LPS stimulation and measured after 6 hrs by Western blot analysis. Type of data set: cell-based.
In data set [8] the test system is RAW264.7. As to the kind of experiment: Inhibition of LPS-induced IL-1beta mRNA expression in mouse RAW264.7 cells at 2 to 20 uM preincubated for 2 hr followed by LPS stimulation and measured after 6 hrs by qRT-PCR. Type of data set: functional, cell-based. To be noted: dose 2-20 µM.
Data set [9] has as its system RAW264.7. As to the kind of experiment: Cytotoxicity against mouse RAW264.7 cells at > 50 uM. It is filed as cell-based.
Data set [10] deals with BMDM. Put plainly: Inhibition of LPS-induced IL-1beta secretion in mouse BMDM cells at 2 to 20 uM preincubated for 2 hr followed by LPS stimulation and measured after 4 hrs. It is filed as functional, cell-based. To be noted: dose 2-20 µM.

The source made the active and inactive calls. The rule behind the calls is not given here.

In the case of `C=CC(=O)Oc1ccc(/C=C/C(=O)c2c(OC)cc3c(c2OC(=O)C=C)CCC(C)(C)O3)cc1`, the inhibition result (in data set [1]; in the data set on RAW264.7 [2]; with BMDM [3]; in the data set with RAW264.7 [4]; in the data set on RAW264.7 [5]; in the data set on RAW264.7 [6]) was “Active” in each case. Besides, the inhibition entry with RAW264.7 [7], with RAW264.7 [8] and in the data set on BMDM [10] was “Active” in each case. Also, in the data set on RAW264.7 [9], the Activity entry is on record as “Non-Toxic”.
